The conditions of data set [1]: amide bond, T3P, DCM, 2.0 h.
The target in data set [2] is T1, Mcl-1 protein (residues 171-323) (Homo sapiens, UniProt Q07820).
T1 construct: Tag-free Mcl-1 protein (residues 171-323) was used in the FP assay
Description: Inhibition of Mcl-1 by fluorescence polarization (FP) competitive binding assay with FAM-Bid tracer. The following applies: 2 nM FAM-Bid, 20 nM Mcl-1, 30 min. The gist of the method: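 Tag-free Mcl-1 (20 nM) with 2 nM FAM-Bid peptide in PBS, 0.01% BGG, 0.01% Triton X-100, 5% DMSO, 30 min at room temperature. FP read at Ex 485/Em 528 nm. IC50 from 10-point curves normalised to DMSO and no-protein controls.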
(Fluorescence polarisation rises when a labelled molecule tumbles more slowly, as on binding a larger partner.)

In the next data set the test system is OPM-2 cells. Description: Cell viability assay (OPM-2 cells), CCK-8. In kind it is cell-based. The following applies: 5% FBS. The procedure, abridged: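 OPM-2 myeloma cells (20000/well) exposed to serially diluted compound for 24 h at 37 °C, 5% CO2, then incubated 4 h with CCK-8 and read at 450 nm. Readings normalized to vehicle; IC50 from nonlinear regression.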

In the next data set the test system is NCI-H929 cells. Description: Cell viability assay (NCI-H929 cells), CCK-8. In kind it is cell-based. The following applies: 5% FBS. The procedure, abridged:
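NCI-H929 cells from ATCC were seeded at 20000 cells/well in 95 μL of culture medium in 96-well plates and grown for 4 hrs. Compounds, serially diluted in DMSO and further diluted in medium, were added as 5 μL, and cells were incubated for 24 hrs at 37° C. with 5% CO2. Viability was measured with CCK-8.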

For data set [3], the system named is MV-4-11, NCI-H929 and OPM-2 xenografts. Description: In vivo xenograft studies (subcutaneous tumor models). As to conditions: tumor-bearing mice, as compared to AMG-176. The protocol: Female SCID mice at 4-6 weeks old were purchased from Shanghai Laboratory Animal Center (SLAC) and 1×10^7 MV-4-11 cells per mouse in 0.2 ml of PBS with 30% Matrigel were inoculated subcutaneously to the right flank of mice. Volumes of the tumor were estimated as V=LW^2/2, where L and W stand for tumor length and width. Mice with tumor at 50-150 mm^3 were randomized into treatment groups (5 mice per group) and started treatment. Compounds were administered at selected doses by p.o. or i.v. administration. The individual relative tumor volume (RTV) is calculated as following: RTV=Vt/V0, where Vt is the volume on each day of measurement and V0 is the volume on the initial day of treatment. Therapeutic effect of compound is expressed with relative tumor proliferation rate (T/C). The calculation formula is: T/C=mean RTV of the treated group/mean RTV of the control group. Treatments producing >20% lethality and/or 20% net body weight loss were considered toxic. Similar procedures were used in the for the NCI-H929 and OPM-2 xenograft experiments. See FIGS. 1, 3, 5, 7, 9, 11, and 13. Body weight changes in tumor-bearing mice were also measured. See FIGS. 2, 4, 6, 8, 10, 12, and 14.

A short description of data set [4]: Pharmacokinetic studies in mice (IV and PO). It is filed as in vivo. The following applies: for F: PO 10 mg/kg vs IV 2 mg/kg; for AUC(0-inf) / AUC(0-t) / clearance / half-life / Cmax / MRT last / Vd / Tmax / Vd/F: mouse, plasma; for MRT last: read-out: MRT0-last; for Vd: read-out: Vss; for Vd/F: read-out: Vz/F. How it is done:
Administration: Mice in the IV group was dosed at 2 mg/kg (20% PEG 400+10% Cremophor EL+70% PBS 7.4) via tail vein injection (N=9). Mice in the PO group was dosed at 10 mg/kg (20% PEG 400+10% Cremophor EL+70% PBS 7.4) via oral gavage (N=9). All the mice were fasted overnight before dosing and had free access to food 4 hr post dosing.
Sampling: The animal was restrained manually at the designated time points (0.083, 0.25, 0.5, 1, 2, 4, 6, 8 and 24 hr), approximately 110 μL of blood sample was collected via retro-orbital puncture or cardiac puncture for terminal bleeding under the anesthesia with Isoflurane inhalation into K2EDTA tubes. The blood samples were maintained in wet ice first and centrifuged to obtain plasma (2000 g, 4° C., 5 min) within 15 minutes post sampling. All the plasma samples were stored at approximately −70° C. until analysis.

[5] abbreviates: IV 2 mg/kg, read-out: C0/Cmax (C0).
Setting [6] is: PO 10 mg/kg, read-out: C0/Cmax (Cmax).

What is called IC50 is the concentration that gives 50% inhibition. For orientation: AUC(0-inf) means the area under the concentration-time curve extrapolated to infinity. Read a high AUC(0-inf) as high exposure. What is called AUC(0-t) is the area under the concentration-time curve up to a stated or last time point. Low readings indicate low exposure, high ones high exposure. The half-life is how long it takes for the measured level to halve. Read a high half-life as slow decline. The Tmax is the time at which the peak concentration occurs.

Read-outs that look alike come from different tables or passages of the source.

T1 sequence (Q07820 171-323): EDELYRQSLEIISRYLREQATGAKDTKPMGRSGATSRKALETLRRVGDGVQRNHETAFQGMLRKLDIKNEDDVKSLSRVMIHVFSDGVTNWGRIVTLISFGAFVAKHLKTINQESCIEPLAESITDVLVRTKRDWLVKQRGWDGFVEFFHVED

Regarding `CO[C@H]1C2=CC(C2)[C@H](C)CS(=O)(=O)NC(=O)c2ccc3c(c2)N(C[C@@H]2CC[C@H]21)C[C@@]1(CCCc2c1ccc(Cl)c2F)CS3` (stereo partly drawn), the ring closure, yield of all isomers in data set [1] (from CO[C@@H](C1=CC([C@H](C)CS(N)(=O)=O)C1)[C@@H]1CC[C@H]1CN1C[C@@]2(CCCc3c2ccc(Cl)c3F)CSc2ccc(C(=O)O)cc21, Et3N, DMAP, 10.6 mM, 25.0 °C) came out at 26.4%.
Turning to `CC(=O)O[C@H]1C2=C[C@@H](C2)[C@H](C)[C@@H](C)S(=O)(=O)NC(=O)c2ccc3c(c2)N(C[C@@H]2CC[C@H]21)C[C@@]1(CCCc2c1ccc(Cl)c2F)CO3`, in data set [1] (from CC(=O)O[C@@H](C1=C[C@H]([C@H](C)[C@@H](C)S(N)(=O)=O)C1)[C@@H]1CC[C@H]1CN1C[C@@]2(CCCc3c2ccc(Cl)c3F)COc2ccc(C(=O)O)cc21, TEA, 14.5 mM), the ring closure, yield of all isomers turned out to be 100%.
Take `CO[C@H]1C2=C[C@@H](C2)[C@H](C)[C@@H](C)S(=O)(=O)NC(=O)c2ccc3c(c2)N(C[C@@H]2CC[C@H]21)C[C@@]1(CCCc2c1ccc(Cl)c2F)CO3` (single isomer, unassigned) [Cpd. No. 17 (isomer 1)]: the IC50 in data set [2] stood at 8.1 nM. This compound yielded an IC50 in the data set on OPM-2 cells (Homo sapiens, OPM-2, 24 h) of 62 nM. Also, in the data set on NCI-H929 cells (Homo sapiens, NCI-H929, 24 h), the IC50 amounted to 16 nM. Besides, in data set [3], the “body weight change (toxicity to the animals)” value was “less body weight change”. The tumor growth inhibition entry in data set [3] (p.o. or i.v.) is “surprisingly better tumor growth inhibition”. In addition, the F in data set [4] came out at 92.9%. In addition, in data set [4] (IV 2 mg/kg), the total exposure AUC(0-inf) came to 15200 ng·h/mL, the AUC(0-t) was found to be 13900 ng·h/mL, the clearance was 2.18 mL/min/kg and the half-life was 7 h. Moreover, in data set [4] (IV 2 mg/kg), the MRT last turned out to be 6.7 h and the Vd was found to be 1.2 L/kg. For the same compound, the Cmax in data set [4] (setting [5]) amounted to 997 ng/mL. Also, in data set [4] (PO 10 mg/kg), the AUC(0-inf) is 70700 ng·h/mL, the AUC(0-t) came to 56000 ng·h/mL, the Tmax was 4 h and the half-life was 10.6 h. Moreover, in data set [4] (PO 10 mg/kg), the MRT last came to 8.3 h and the Vd/F was determined as 2.2 L/kg. Moreover, the Cmax in data set [4] (setting [6]) was found to be 4350 ng/mL.
As for `CO[C@H]1C2=CC(C)(C2)[C@H](C)CS(=O)(=O)NC(=O)c2ccc3c(c2)N(C[C@@H]2CC[C@H]21)C[C@@]1(CCCc2cc(Cl)ccc21)CO3` (mixture of isomers) [13 (mixture)], the IC50 in data set [2] is 21 nM. In addition, half-maximal inhibition in the data set on OPM-2 cells (Homo sapiens, OPM-2, 24 h) (IC50) required 348 nM. The IC50 in the data set on NCI-H929 cells (Homo sapiens, NCI-H929, 24 h) was 89 nM. For the same compound, in data set [4], the F turned out to be 57.2%. Further, in data set [4] (IV 2 mg/kg), the AUC(0-inf) came out at 5200 ng·h/mL, the AUC(0-t) amounted to 4780 ng·h/mL, the clearance is 6.4 mL/min/kg and the half-life is 6.5 h. Moreover, in data set [4] (IV 2 mg/kg), the MRT last amounted to 6.2 h and the Vd was determined as 3.2 L/kg. Besides, the Cmax in data set [4] (setting [5]) is 861 ng/mL. In data set [4] (PO 10 mg/kg), the AUC(0-inf) worked out at 14900 ng·h/mL, the AUC(0-t) was determined as 14400 ng·h/mL, the Tmax worked out at 4 h and the half-life is 4.5 h. Besides, in data set [4] (PO 10 mg/kg), the MRT last came out at 6.6 h and the Vd/F amounted to 4.4 L/kg. Moreover, the Cmax in data set [4] (setting [6]) was 1270 ng/mL.
In data set [1] (from CC(=O)OC(C1=C[C@H]([C@H](C)[C@@H](C)S(N)(=O)=O)C1)[C@@H]1CC[C@H]1CN1C[C@@]2(CCCc3c2ccc(Cl)c3F)COc2ccc(C(=O)O)nc21, DIPEA, DMAP, 24.6 mM), `CC(=O)OC1C2=C[C@@H](C2)[C@H](C)[C@@H](C)S(=O)(=O)NC(=O)c2ccc3c(n2)N(C[C@@H]2CC[C@@H]12)C[C@@]1(CCCc2c1ccc(Cl)c2F)CO3` (stereo partly drawn) returned a ring closure, yield of all isomers of 100%.
`CO[C@@]1(C=O)C2=C[C@@H](C2)[C@H](C)[C@@H](C)S(=O)(=O)NC(=O)c2ccc3c(c2)N(C[C@@H]2CC[C@H]21)C[C@@]1(CCCc2c1ccc(Cl)c2F)CO3` gave a ring closure, yield of all isomers in data set [1] (from CO[C@@](C=O)(C1=C[C@H]([C@H](C)[C@@H](C)S(N)(=O)=O)C1)[C@@H]1CC[C@H]1CN1C[C@@]2(CCCc3c2ccc(Cl)c3F)COc2ccc(C(=O)O)cc21, DIPEA, DMAP, 6.4 mM, 0.0 °C) of 89%.
Consider `CO[C@H]1C2=CC(C2)[C@H](C)CS(=O)(=O)NC(=O)c2ccc3c(c2)N(C[C@@H]2CC[C@H]21)C[C@@]1(CCCc2cc(Cl)ccc21)CO3` (single isomer, unassigned) [Cpd. No. 14 (Isomer 1)], for which, in data set [2], the IC50 was 4.7 nM. Further, the IC50 with OPM-2 cells (24 h) was 208 nM. Further, the IC50 in the data set on NCI-H929 cells (24 h) is 26 nM. The compound also displayed a F in data set [4] of 134.6%. In data set [4] (IV 2 mg/kg), this compound gave an AUC(0-inf) of 4720 ng·h/mL, an exposure AUC(0-t) of 4690 ng·h/mL, a clearance of 7.07 mL/min/kg and a half-life of 3.6 h. In data set [4] (IV 2 mg/kg), the MRT last turned out to be 3.9 h and the Vd worked out at 1.7 L/kg. Also, the Cmax in data set [4] (setting [5]) came out at 1510 ng/mL. Also, in data set [4] (PO 10 mg/kg), the AUC(0-inf) came out at 31800 ng·h/mL, the AUC(0-t) amounted to 31400 ng·h/mL, the Tmax is 2 h and the half-life is 3.6 h. Moreover, in data set [4] (PO 10 mg/kg), the MRT last turned out to be 5.6 h and the Vd/F came to 1.6 L/kg. Besides, the Cmax in data set [4] (setting [6]) worked out at 3920 ng/mL.

These data come from patent US11498928B2, “Macrocyclic spiroethers as Mcl-1 inhibitors” (ASCENTAGE PHARMA (SUZHOU) CO., LTD., priority 2019, dated 2022).
